According to article PMC3581696 (The Journal of General Physiology, 2013):

Columns and labels:
mEAG1 channel = target: T1, mEAG1 channel (Mus musculus, UniProt Q60603); assay: Inside-out patch-clamp of wild-type mEAG1 channels expressed in Xenopus oocytes; assay type: cell-based; conditions: 50 µM
T1 sequence (Q60603 1-989): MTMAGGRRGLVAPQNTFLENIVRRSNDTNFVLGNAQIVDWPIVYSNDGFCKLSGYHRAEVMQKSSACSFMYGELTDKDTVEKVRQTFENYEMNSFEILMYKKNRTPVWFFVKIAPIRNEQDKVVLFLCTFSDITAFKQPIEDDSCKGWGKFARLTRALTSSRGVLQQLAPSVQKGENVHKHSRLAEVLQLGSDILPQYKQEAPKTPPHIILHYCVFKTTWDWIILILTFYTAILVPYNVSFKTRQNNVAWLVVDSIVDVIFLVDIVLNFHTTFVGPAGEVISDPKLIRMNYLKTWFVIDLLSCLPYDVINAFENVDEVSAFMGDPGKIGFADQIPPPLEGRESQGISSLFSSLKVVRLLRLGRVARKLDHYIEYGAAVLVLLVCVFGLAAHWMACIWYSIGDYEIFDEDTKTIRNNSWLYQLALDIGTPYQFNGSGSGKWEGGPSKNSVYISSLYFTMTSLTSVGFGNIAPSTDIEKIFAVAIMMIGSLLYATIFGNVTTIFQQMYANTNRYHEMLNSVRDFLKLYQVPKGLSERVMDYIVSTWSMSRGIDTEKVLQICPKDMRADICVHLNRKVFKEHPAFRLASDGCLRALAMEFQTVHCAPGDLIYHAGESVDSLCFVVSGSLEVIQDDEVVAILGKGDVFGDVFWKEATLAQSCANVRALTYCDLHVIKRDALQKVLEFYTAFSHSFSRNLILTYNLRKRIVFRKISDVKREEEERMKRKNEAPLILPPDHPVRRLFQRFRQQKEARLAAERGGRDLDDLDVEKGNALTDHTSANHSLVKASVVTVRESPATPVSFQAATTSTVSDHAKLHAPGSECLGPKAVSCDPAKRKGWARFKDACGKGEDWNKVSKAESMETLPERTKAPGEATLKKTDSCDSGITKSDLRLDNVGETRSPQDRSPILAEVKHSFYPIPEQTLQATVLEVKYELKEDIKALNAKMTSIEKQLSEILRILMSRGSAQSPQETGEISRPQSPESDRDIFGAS

[1] = target: T2, purified C-linker/CNBHD of mEAG1 channels (Mus musculus, UniProt Q60603); assay: Tryptophan-to-flavonoid FRET binding assay; conditions: 100 µM flavonoid; 4 µM protein
T2 sequence (Q60603 505-702): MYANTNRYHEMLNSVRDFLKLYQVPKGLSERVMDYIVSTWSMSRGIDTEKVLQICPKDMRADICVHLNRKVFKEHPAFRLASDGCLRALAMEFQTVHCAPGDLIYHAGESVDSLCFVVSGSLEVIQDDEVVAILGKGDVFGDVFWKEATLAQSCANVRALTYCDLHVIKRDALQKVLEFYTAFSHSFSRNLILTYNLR

[2] = Solubility limit in recording / aqueous solutions; assay type: physicochemical; conditions: aqueous solutions

| SMILES | effect on steady-state or kinetic properties of mEAG1 channel gating (mEAG1 channel) | decrease of peak fluorescence intensity of the C-linker/CNBHD at 341 nm [1] [%] | solubility [2] [µM] |
| --- | --- | --- | --- |
| COc1ccc(-c2cc(=O)c3c(O)cc(O)cc3o2)cc1 [Acacetin, 5,7-dihydroxy-2-(4-methoxyphenyl)chromen-4-one] | did not alter |  |  |
| C[C@]12CC[C@@H]3c4ccc(O)cc4CC[C@H]3[C@@H]1CC[C@@H]2O [Estradiol, (17β)-estra-1,3,5(10)-triene-3,17-diol] | did not shift the voltage dependence or slow the deactivation |  |  |
| O=c1c(O)c(-c2ccc(O)c(O)c2)oc2cc(O)cc(O)c12 [Quercetin, 2-(3,4-dihydroxyphenyl)-3,5,7-trihydroxy-4H-chromen-4-one] |  | 51 | ≤ 150 |
| Oc1cc(O)c2c(c1)O[C@H](c1ccc(O)c(O)c1)[C@@H](O)C2 [Catechin, (2R,3S)-2-(3,4-dihydroxyphenyl)-3,4-dihydro-2H-chromene-3,5,7-triol] | did not alter |  |  |
